From US12617797B2, “Substituted pyrazolo [1,5-a]pyrimidines having multimodal activity against pain” (ESTEVE PHARMACEUTICALS, S.A., priority 2020, dated 2026)

Tests used:
[1] = target: T1, Human σ1 receptor (Homo sapiens, UniProt Q99720); assay: Human σ1 receptor radioligand assay ([3H](+)-pentazocine binding, transfected HEK-293 membranes); conditions: binding to σ1 receptor expressed as Ki; + also covers inhibition between 1% and 50%; read-out: σ-1 binding
T1 construct: expressed in transfected cells; host or cells: HEK-293
Description: Human σ1 Receptor Radioligand Assay
Transfected HEK-293 membranes (7 μg) were incubated with 5 nM of [^3H](+)-pentazocine in assay buffer containing Tris-HCl 50 mM at pH 8. NBS (non-specific binding) was measured by adding 10 μM haloperidol. The binding of the test compound was measured at either one concentration (% inhibition at 1 or 10 μM) or five different concentrations to determine affinity values (Ki). Plates were incubated at 37° C. for 120 minutes. After the incubation period, the reaction mix was then transferred to MultiScreen HTS, FC plates (Millipore), filtered and plates were washed 3 times with ice-cold 10 mM Tris-HCL (pH7.4). Filters were dried and counted at approximately 40% efficiency in a MicroBeta scintillation counter (Perkin-Elmer) using EcoScint liquid scintillation cocktail.

[2] = target: Human α2δ-1 subunit of Cav2.2 calcium channel (Homo sapiens, UniProt P54289); assay: Human α2δ-1 subunit of Cav2.2 calcium channel assay ([3H]-gabapentin binding); conditions: binding to the α2δ-1 subunit of voltage-gated calcium channels expressed as Ki; + also covers inhibition between 1% and 50%
Description: Biological Activity Pharmacological Study Human α2δ-1 Subunit of Cav2.2 Calcium Channel Assay
Human α2δ-1 enriched membranes (2.5 μg) were incubated with 15 nM of radiolabeled [^3H]-Gabapentin in assay buffer containing Hepes-KOH 10 mM, pH 7.4. NSB (non specific binding) was measured by adding 10 μM pregabalin. The binding of the test compound was measured at either one concentration (% inhibition at 1 or 10 μM) or five different concentrations to determine affinity values (Ki). After 60 min incubation at 27° C., binding reaction was terminated by filtering through Multiscreen GF/C (Millipore) presoaked in 0.5% polyethyleneimine in Vacuum Manifold Station, followed by 3 washes with ice-cold filtration buffer containing 50 mM Tris-HCl, pH 7.4. Filter plates were dried at 60° C. for 1 h and 30 μL of scintillation cocktail were added to each well before radioactivity reading. Readings were performed in a Trilux 1450 Microbeta radioactive counter (Perkin Elmer).

T1 sequence (Q99720 whole entry): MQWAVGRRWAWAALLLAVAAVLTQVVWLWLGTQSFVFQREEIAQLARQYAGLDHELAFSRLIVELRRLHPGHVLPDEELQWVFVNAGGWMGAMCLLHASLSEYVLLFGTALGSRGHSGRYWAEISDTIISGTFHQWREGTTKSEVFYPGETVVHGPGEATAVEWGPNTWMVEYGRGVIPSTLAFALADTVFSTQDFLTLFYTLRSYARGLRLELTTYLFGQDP
Sequence of Human α2δ-1 subunit of Cav2.2 calcium channel (P54289 25-1103): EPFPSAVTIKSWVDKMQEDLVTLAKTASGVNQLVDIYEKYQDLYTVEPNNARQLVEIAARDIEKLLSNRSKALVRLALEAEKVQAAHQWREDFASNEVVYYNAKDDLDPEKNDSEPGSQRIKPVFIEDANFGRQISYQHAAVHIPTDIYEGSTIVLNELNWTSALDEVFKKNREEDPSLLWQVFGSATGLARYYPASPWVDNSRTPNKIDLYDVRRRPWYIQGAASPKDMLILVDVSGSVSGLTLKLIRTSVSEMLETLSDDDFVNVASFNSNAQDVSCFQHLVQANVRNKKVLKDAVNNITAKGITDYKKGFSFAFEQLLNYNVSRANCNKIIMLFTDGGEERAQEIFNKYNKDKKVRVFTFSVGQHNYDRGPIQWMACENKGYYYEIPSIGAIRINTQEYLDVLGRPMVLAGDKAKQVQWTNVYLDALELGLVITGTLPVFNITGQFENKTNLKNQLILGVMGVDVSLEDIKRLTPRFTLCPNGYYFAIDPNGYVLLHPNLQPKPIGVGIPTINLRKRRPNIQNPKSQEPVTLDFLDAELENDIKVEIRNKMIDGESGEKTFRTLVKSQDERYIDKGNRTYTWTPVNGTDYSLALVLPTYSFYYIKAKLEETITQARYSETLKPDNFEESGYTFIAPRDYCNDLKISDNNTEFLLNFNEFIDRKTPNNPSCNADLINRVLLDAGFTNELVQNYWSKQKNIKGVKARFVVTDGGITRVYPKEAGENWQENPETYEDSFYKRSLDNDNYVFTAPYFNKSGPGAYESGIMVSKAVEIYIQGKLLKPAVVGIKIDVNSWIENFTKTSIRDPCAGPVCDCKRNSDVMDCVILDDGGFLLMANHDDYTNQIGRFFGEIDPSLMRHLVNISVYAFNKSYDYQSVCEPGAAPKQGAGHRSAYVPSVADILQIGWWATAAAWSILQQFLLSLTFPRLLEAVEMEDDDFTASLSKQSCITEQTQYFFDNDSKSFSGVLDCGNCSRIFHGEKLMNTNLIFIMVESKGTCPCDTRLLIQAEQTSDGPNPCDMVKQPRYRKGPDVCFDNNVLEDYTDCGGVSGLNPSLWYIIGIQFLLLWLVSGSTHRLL

Ki [1] [nM]	Ki [2] [nM]	Compound
< 500	> 5000	Clc1nn2c([C@@H]3CCCN(Cc4ccccc4)C3)ccnc2c1CNCC1CCOCC1 [Example 215]
> 1000	500 to 5000	c1ccc(CN2CCCC(c3ccnc4cc(-c5cncnc5)nn34)C2)cc1 (centres unmarked) [Example 23, 7-(1-Benzylpiperidin-3-yl)-2-(pyrimidin-5-yl)pyrazolo[1,5-a]pyrimidine]
< 500	> 5000	Cc1nn2c([C@H]3CCCN(Cc4ccc(Cl)cc4)C3)ccnc2c1CN[C@H](C)c1ccccc1 [Example 196, (R)—N-((7-((S)-1-(4-chlorobenzyl)piperidin-3-yl)-2-methylpyrazolo[1,5-a]pyrimidin-3-yl)methyl)-1-phenylethan-1-amine]
500 to 1000	> 5000	Cc1nn2c(CC3CCCN(Cc4cccc(Cl)c4)C3)ccnc2c1-c1ccncc1 (centres unmarked) [Example 250]
> 1000	500 to 5000	Cc1nn2c([C@H]3CCCN(Cc4ccccc4)C3)ccnc2c1CNC[C@H]1CCN(C)C(=O)C1 [Example 244, (S)-4-((((7-((S)-1-Benzylpiperidin-3-yl)-2-methylpyrazolo[1,5-a]pyrimidin-3-yl)methyl)amino)methyl)-1-methylpiperidin-2-one]
< 500	< 500	Cc1nn2c(C3CCCN(Cc4ccc(F)c(F)c4)C3)ccnc2c1CNCC1CCOCC1 (centres unmarked) [Example 182, 1-(7-(1-(3,4-Difluorobenzyl)piperidin-3-yl)-2-methylpyrazolo[1,5-a]pyrimidin-3-yl)-N-((tetrahydro-2H-pyran-4-yl)methyl)methanamine]
> 1000	> 5000	CCOc1ccc(-c2cnn3c(C4CCCN(Cc5ccccc5)C4)ccnc23)cc1 (centres unmarked) [Example 39, 7-(1-Benzylpiperidin-3-yl)-3-(4-ethoxyphenyl)pyrazolo[1,5-a]pyrimidine]
> 1000	> 5000	COc1cc(-c2cc3nccc(C4CCCN(Cc5ccccc5)C4)n3n2)ccn1 (centres unmarked) [Example 32, 7-(1-Benzylpiperidin-3-yl)-2-(2-methoxypyridin-4-yl)pyrazolo[1,5-a]pyrimidine]
< 500	500 to 5000	Cc1nn2c([C@@H]3CCCN(Cc4ccc(Cl)cc4)C3)ccnc2c1CN[C@H](C)c1ccccc1 [Example 195, (R)—N-((7-((R)-1-(4-Chlorobenzyl)piperidin-3-yl)-2-methylpyrazolo[1,5-a]pyrimidin-3-yl)methyl)-1-phenylethan-1-amine]
> 1000	> 5000	Cc1cc2nccc(C3CCCN(CCc4ccccc4)C3)n2n1 (centres unmarked) [Example 67, 2-Methyl-7-(1-phenethylpiperidin-3-yl)pyrazolo[1,5-a]pyrimidine]
< 500	> 5000	COc1ccc(CN2CCCC(c3ccnc4c(CNCC5CCOCC5)c(C)nn34)C2)cc1 (centres unmarked) [Example 242, 1-(7-(1-(4-Methoxybenzyl)piperidin-3-yl)-2-methylpyrazolo[1,5-a]pyrimidin-3-yl)-N-((tetrahydro-2H-pyran-4-yl)methyl)methanamine]
> 1000	500 to 5000	Cc1nn2c(C3CCCN(Cc4ccccc4)C3)ccnc2c1CN (centres unmarked) [Example 99, (7-(1-Benzylpiperidin-3-yl)-2-methylpyrazolo[1,5-a]pyrimidin-3-yl)methanamine]
< 500	< 500	Cc1nn2c([C@H]3CCCN(Cc4ccc(Cl)cc4)C3)ccnc2c1CN[C@@H](C)c1ccccc1 [Example 198, (S)—N-((7-((S)-1-(4-chlorobenzyl)piperidin-3-yl)-2-methylpyrazolo[1,5-a]pyrimidin-3-yl)methyl)-1-phenylethan-1-amine]
< 500	< 500	CC(=O)N1CCC(CNCc2c(Cl)nn3c([C@H]4CCCN(Cc5ccccc5)C4)ccnc23)CC1 [Example 216, (S)-1-(4-((((7-(1-Benzylpiperidin-3-yl)-2-chloropyrazolo[1,5-a]pyrimidin-3-yl)methyl)amino)methyl)piperidin-1-yl)ethan-1-one]
< 500	500 to 5000	Cc1nn2c(C3CCCN(Cc4ccc(Cl)cc4)C3)ccnc2c1CNCc1ccncc1 (centres unmarked) [Example 148, 1-(7-(1-(4-Chlorobenzyl)piperidin-3-yl)-2-methylpyrazolo[1,5-a]pyrimidin-3-yl)-N-(pyridin-4-ylmethyl)methanamine]
500 to 1000	500 to 5000	Cc1ccc(CN2CCCC(c3ccnc4c(-c5ccncc5)c(C)nn34)C2)cc1 (centres unmarked) [Example 76, 2-Methyl-7-(1-(4-methylbenzyl)piperidin-3-yl)-3-(pyridin-4-yl)pyrazolo[1,5-a]pyrimidine]
< 500	> 5000	CC(=O)N1CCC(CNCc2c(Cl)nn3c(C4CCCN(CCC(C)C)C4)ccnc23)CC1 (centres unmarked) [Example 192, 1-(4-((((2-chloro-7-(1-isopentylpiperidin-3-yl)pyrazolo[1,5-a]pyrimidin-3-yl)methyl)amino)methyl)piperidin-1-yl)ethan-1-one]
< 500	500 to 5000	Cc1nn2c(C3CCCN(Cc4ccc(Cl)cc4)C3)ccnc2c1CNCC(C)C (centres unmarked) [Example 160, N-((7-(1-(4-Chlorobenzyl)piperidin-3-yl)-2-methylpyrazolo[1,5-a]pyrimidin-3-yl)methyl)-2-methylpropan-1-amine]
> 1000	500 to 5000	Cc1cnc2c(-c3ccncc3)cnn2c1C1CCCN(Cc2ccccc2)C1 (centres unmarked) [Example 41, 7-(1-Benzylpiperidin-3-yl)-6-methyl-3-(pyridin-4-yl)pyrazolo[1,5-a]pyrimidine]
> 1000	500 to 5000	Cn1cncc1-c1cc2nccc(C3CCCN(Cc4ccccc4)C3)n2n1 (centres unmarked) [Example 21, 7-(1-Benzylpiperidin-3-yl)-2-(1-methyl-1H-imidazol-5-yl)pyrazolo[1,5-a]pyrimidine]
< 500	> 5000	Cc1nn2c(C3CCCN(Cc4ccc(C(F)(F)F)nc4)C3)ccnc2c1CNCC1CCOCC1 (centres unmarked) [Example 184, 1-(2-Methyl-7-(1-((6-(trifluoromethyl)pyridin-3-yl)methyl)piperidin-3-yl)pyrazolo[1,5-a]pyrimidin-3-yl)-N-((tetrahydro-2H-pyran-4-yl)methyl)methanamine]
< 500	> 5000	Cc1nn2c(CC3CCCN(Cc4cccc(Cl)c4)C3)ccnc2c1CN(C)C (centres unmarked) [Example 252, 1-(7-((1-(3-Chlorobenzyl)piperidin-3-yl)methyl)-2-methylpyrazolo[1,5-a]pyrimidin-3-yl)-N,N-dimethylmethanamine]
500 to 1000	> 5000	Cc1nn2c(C3CCCN(Cc4ccc(Cl)cc4)C3)ccnc2c1CN(CC1CCOCC1)CC(F)(F)F (centres unmarked) [Example 235, N-((7-(1-(4-Chlorobenzyl)piperidin-3-yl)-2-methylpyrazolo[1,5-a]pyrimidin-3-yl)methyl)-2,2,2-trifluoro-N-((tetrahydro-2H-pyran-4-yl)methyl)ethan-1-amine]
< 500	> 5000	Cc1nn2c(CC3CCCN(Cc4ccc(Cl)cc4)C3)ccnc2c1-c1ccncc1 (centres unmarked) [Example 249, 7-((1-(4-Chlorobenzyl)piperidin-3-yl)methyl)-2-methyl-3-(pyridin-4-yl)pyrazolo[1,5-a]pyrimidine]
> 1000	500 to 5000	CN[C@@H]1CCN(c2cc3nccc([C@H]4CCCN(Cc5ccccc5)C4)n3n2)C1 [Example 87, (R)-1-(7-((S)-1-Benzylpiperidin-3-yl)pyrazolo[1,5-a]pyrimidin-2-yl)-N-methylpyrrolidin-3-amine]
500 to 1000	500 to 5000	COc1ncccc1-c1cc2nccc(C3CCCN(Cc4ccccc4)C3)n2n1 (centres unmarked) [Example 27, 7-(1-Benzylpiperidin-3-yl)-2-(2-methoxypyridin-3-yl)pyrazolo[1,5-a]pyrimidine]
< 500	500 to 5000	Cc1nn2c([C@H]3CCCN(Cc4ccc(Cl)cc4)C3)ccnc2c1CNC[C@@H]1CCOC1 [Example 203, 1-(7-((S)-1-(4-chlorobenzyl)piperidin-3-yl)-2-methylpyrazolo[1,5-a]pyrimidin-3-yl)-N—(((S)-tetrahydrofuran-3-yl)methyl)methanamine]
> 1000	500 to 5000	COc1ccccc1-c1cc2nccc(C3CCCN(Cc4ccccc4)C3)n2n1 (centres unmarked) [Example 29, 7-(1-Benzylpiperidin-3-yl)-2-(2-methoxyphenyl)pyrazolo[1,5-a]pyrimidine]
> 1000	> 5000	Cc1cc2nccc(C3CCCN(Cc4ccccn4)C3)n2n1 (centres unmarked) [Example 66, 2-Methyl-7-(1-(pyridin-2-ylmethyl)piperidin-3-yl)pyrazolo[1,5-a]pyrimidine]
	> 5000	CC(=O)N1CCC(CNCc2c(Cl)nn3c([C@@H]4CCCN(Cc5ccccc5)C4)ccnc23)CC1 [Example 217, (R)-1-(4-((((7-(1-benzylpiperidin-3-yl)-2-chloropyrazolo[1,5-a]pyrimidin-3-yl)methyl)amino)methyl)piperidin-1-yl)ethan-1-one]
